Assay results: US20070021419A1, “2-Aminophenyl-4-phenylpyrimidines as kinase inhibitors” (Cyclacel Limited, priority 2003, published 2007)

What was measured:
CDK1/cyclin B = CDK1/cyclin B (Homo sapiens, UniProt P06493); test: Kinase assay, radioactive phosphate incorporation, CDK1/cyclin B; format: biochemical; settings: 100 μM ATP, 30° C.; read-out: Kinase inhibition IC50 CDK1/cyclin B
Method: (§1) The compounds from the examples above were investigated for their ability to inhibit the enzymatic activity of various protein kinases. This was achieved by measurement of incorporation of radioactive phosphate from ATP into appropriate polypeptide substrates. Recombinant protein kinases and kinase complexes were produced or obtained commercially. Assays were performed using 96-well plates and appropriate assay buffers (typically 25 mM β-glycerophosphate, 20 mM MOPS, 5 MM EGTA, 1 mM DTT, 1 mM Na3VO3, pH 7.4), into which were added 2-4 μg of active enzyme with appropriate substrates. The reactions were initiated by addition of Mg/ATP mix (15 mM MgCl2+100 μM ATP with 30-50 kBq per well of [γ-^32P]-ATP) and mixtures incubated as required at 30° C. Reactions were stopped on ice, followed by filtration through p81 filterplates or GF/C filterplates (Whatman Polyfiltronics, Kent, UK). After washing 3 times with 75 mM aq orthophosphoric acid, plates were dried, scintillant added and incorporated radioactivity measured in a scintillation counter (TopCount, Packard Instruments, Pangbourne, Berks, UK). Compounds for kinase assay were made up as 10 mM stocks in DMSO and diluted into 10% DMSO in assay buffer.

CDK2/cyclin E = CDK2/cyclin E (Homo sapiens, UniProt P24941); test: Kinase assay, radioactive phosphate incorporation, CDK2/cyclin E; format: biochemical; settings: 100 μM ATP, 30° C.; read-out: Kinase inhibition IC50 CDK2/cyclin E
Method: as §1

CDK7/cyclin H = CDK7/cyclin H (Homo sapiens, UniProt P50613); test: Kinase assay, radioactive phosphate incorporation, CDK7/cyclin H; format: biochemical; settings: 100 μM ATP, 30° C.; read-out: Kinase inhibition IC50 CDK7/cyclin H
Method: as §1

CDK9/cyclin T1 = CDK9/cyclin T1 (Homo sapiens, UniProt P50750); test: Kinase assay, radioactive phosphate incorporation, CDK9/cyclin T1; format: biochemical; settings: 100 μM ATP, 30° C.; read-out: Kinase inhibition IC50 CDK9/cyclin T1
Method: as §1

GSK3β = GSK3β (Homo sapiens, UniProt P49841); test: Kinase assay, radioactive phosphate incorporation, GSK3β; format: biochemical; settings: 100 μM ATP, 30° C.; read-out: Kinase inhibition IC50 GSK3β
Method: as §1

A549 = test: 72-h MTT cytotoxicity assay, A549; format: cell-based; settings: Homo sapiens, read-out: 72-h MTT IC50 A549, A549 cell line
Method: (§2) The compounds from the examples above were subjected to a standard cellular proliferation assay using human tumour cell lines obtained from the ATCC (American Type Culture Collection, 10801 University Boulevard, Manessas, Va. 20110-2209, USA). Standard 72-h MTT (thiazolyl blue; 3-[4,5-dimethylthiazol-2-yl]-2,5-diphenyltetrazolium bromide) assays were performed. In short: cells were seeded into 96-well plates according to doubling time and incubated overnight at 37° C. Test compounds were made up in DMSO and a 1/3 dilution series prepared in 100 μL cell media, added to cells (in triplicates) and incubated for 72 ho at 37° C. MTT was made up as a stock of 5 mg/mL in cell media and filter-sterilised. Media was removed from cells followed by a wash with 200 μL PBS. MTT solution was then added at 20 μL per well and incubated in the dark at 37° C. for 4 h. MTT solution was removed and cells again washed with 200 μL PBS. MTT dye was solubilised with 200 μL per well of DMSO with agitation.

HT29 = test: 72-h MTT cytotoxicity assay, HT29; format: cell-based; settings: Homo sapiens, HT-29, read-out: 72-h MTT IC50 HT29, HT29 cell line
Method: as §2

Saos-2 = test: 72-h MTT cytotoxicity assay, Saos-2; format: cell-based; settings: Homo sapiens, read-out: 72-h MTT IC50 Saos-2, Saos-2 cell line
Method: as §2

[1] = tested on: transformed human cell lines (A549, HT29, Saos-2); test: 72-h MTT cytotoxicity assay, average of cell lines; format: cell-based; settings: read-out: 72-h MTT IC50 Average, average of A549, HT29, Saos-2
Method: as §2

CDK2/cyclin A = CDK2/cyclin A (Homo sapiens, UniProt P24941); test: Kinase assay, radioactive phosphate incorporation, CDK2/cyclin A; format: biochemical; settings: 100 μM ATP, 30° C.; read-out: Kinase inhibition IC50 CDK2/cyclin A
Method: as §1

CDK4/cyclin D1 = CDK4/cyclin D1 (Homo sapiens, UniProt P11802); test: Kinase assay, radioactive phosphate incorporation, CDK4/cyclin D1; format: biochemical; settings: 100 μM ATP, 30° C.; read-out: Kinase inhibition IC50 CDK4/cyclin D1
Method: as §1

CDK4/cyclin D1, sequence (P11802 whole entry, species assumed): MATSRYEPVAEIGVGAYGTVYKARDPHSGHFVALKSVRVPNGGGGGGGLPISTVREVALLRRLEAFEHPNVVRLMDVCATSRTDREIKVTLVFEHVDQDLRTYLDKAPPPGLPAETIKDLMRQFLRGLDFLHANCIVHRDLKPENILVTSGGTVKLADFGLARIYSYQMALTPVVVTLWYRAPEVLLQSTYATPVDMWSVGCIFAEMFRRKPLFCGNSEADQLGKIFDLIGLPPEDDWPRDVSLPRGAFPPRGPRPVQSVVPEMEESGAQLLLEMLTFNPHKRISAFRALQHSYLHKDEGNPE
CDK4/cyclin D1, sequence (P24385 whole entry partner, species assumed): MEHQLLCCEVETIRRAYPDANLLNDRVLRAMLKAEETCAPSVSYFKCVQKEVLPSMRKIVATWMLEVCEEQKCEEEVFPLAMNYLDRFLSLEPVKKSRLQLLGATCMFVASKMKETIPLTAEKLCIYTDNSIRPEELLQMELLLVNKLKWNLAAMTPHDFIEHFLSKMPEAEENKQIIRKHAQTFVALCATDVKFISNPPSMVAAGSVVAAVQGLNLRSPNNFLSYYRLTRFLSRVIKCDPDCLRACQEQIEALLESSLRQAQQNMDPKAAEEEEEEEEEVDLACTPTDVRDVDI
CDK9/cyclin T1, sequence (P50750 whole entry, species assumed): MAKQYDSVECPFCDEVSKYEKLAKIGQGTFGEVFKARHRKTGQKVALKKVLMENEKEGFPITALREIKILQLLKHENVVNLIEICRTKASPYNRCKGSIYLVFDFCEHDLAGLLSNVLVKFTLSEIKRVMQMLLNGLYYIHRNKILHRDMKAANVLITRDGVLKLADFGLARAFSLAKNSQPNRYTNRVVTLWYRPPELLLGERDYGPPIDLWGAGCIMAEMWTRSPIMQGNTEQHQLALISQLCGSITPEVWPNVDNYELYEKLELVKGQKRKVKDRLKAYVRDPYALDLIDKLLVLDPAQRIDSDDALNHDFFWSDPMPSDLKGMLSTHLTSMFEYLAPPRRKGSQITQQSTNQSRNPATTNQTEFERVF
CDK9/cyclin T1, sequence (O60563 whole entry partner, species assumed): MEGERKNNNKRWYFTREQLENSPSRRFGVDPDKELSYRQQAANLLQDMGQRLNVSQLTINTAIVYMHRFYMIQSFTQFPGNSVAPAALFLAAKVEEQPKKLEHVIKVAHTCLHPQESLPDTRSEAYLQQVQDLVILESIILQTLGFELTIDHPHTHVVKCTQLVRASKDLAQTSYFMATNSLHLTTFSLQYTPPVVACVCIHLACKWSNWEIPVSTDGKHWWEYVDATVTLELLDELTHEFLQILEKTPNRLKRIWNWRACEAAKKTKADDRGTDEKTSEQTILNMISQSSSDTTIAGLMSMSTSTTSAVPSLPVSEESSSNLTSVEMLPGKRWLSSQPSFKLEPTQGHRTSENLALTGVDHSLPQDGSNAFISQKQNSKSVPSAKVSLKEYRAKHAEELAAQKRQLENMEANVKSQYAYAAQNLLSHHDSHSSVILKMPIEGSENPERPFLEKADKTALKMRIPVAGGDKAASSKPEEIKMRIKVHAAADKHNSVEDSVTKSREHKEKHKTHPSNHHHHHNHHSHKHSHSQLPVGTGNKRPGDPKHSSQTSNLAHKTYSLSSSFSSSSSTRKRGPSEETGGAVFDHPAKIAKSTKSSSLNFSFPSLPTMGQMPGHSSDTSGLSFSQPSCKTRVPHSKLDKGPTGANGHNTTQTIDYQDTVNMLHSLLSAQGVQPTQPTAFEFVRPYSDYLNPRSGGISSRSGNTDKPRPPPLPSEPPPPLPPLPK
GSK3β, sequence (P49841 whole entry, species assumed): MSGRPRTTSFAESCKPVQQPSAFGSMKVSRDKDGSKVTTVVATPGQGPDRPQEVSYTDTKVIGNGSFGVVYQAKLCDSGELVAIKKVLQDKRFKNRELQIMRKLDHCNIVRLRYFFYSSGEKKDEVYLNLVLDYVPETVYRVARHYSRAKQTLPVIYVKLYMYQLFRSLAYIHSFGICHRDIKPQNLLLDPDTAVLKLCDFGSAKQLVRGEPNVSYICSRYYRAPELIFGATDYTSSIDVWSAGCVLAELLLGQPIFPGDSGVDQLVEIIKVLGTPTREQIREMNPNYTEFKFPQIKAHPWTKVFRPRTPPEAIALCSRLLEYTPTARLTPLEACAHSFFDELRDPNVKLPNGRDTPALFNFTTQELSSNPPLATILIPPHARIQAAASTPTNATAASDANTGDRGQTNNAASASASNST
CDK1/cyclin B, sequence (P06493 whole entry, species assumed): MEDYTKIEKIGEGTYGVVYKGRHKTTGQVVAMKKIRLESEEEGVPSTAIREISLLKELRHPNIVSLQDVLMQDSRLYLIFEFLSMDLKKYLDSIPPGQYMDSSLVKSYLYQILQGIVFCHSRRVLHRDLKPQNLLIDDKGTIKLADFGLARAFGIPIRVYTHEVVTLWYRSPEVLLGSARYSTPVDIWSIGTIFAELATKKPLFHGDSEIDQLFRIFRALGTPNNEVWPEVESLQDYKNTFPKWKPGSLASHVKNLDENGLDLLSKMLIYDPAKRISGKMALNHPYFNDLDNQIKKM
CDK1/cyclin B, sequence (P14635 whole entry partner, species assumed): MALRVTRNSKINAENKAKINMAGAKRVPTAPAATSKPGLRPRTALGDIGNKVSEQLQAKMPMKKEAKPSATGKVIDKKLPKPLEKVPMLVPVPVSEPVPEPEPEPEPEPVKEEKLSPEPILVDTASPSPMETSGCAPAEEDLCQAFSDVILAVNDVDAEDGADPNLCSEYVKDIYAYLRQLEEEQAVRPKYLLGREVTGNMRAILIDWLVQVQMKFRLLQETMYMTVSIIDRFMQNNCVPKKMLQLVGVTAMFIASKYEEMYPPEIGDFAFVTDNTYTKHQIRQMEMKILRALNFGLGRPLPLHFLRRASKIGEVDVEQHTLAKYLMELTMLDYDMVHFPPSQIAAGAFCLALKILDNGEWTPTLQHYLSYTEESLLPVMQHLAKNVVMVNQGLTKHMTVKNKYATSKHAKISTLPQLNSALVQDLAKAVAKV
CDK7/cyclin H, sequence (P50613 whole entry, species assumed): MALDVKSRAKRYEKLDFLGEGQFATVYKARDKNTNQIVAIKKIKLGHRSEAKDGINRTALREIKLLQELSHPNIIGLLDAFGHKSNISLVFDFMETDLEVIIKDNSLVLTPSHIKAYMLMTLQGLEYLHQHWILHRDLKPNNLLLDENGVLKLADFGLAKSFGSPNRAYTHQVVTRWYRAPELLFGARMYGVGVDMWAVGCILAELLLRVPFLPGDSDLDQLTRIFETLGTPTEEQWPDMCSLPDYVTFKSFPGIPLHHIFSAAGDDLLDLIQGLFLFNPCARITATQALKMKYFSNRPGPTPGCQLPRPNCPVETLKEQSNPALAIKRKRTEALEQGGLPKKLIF
CDK7/cyclin H, sequence (P51946 whole entry partner, species assumed): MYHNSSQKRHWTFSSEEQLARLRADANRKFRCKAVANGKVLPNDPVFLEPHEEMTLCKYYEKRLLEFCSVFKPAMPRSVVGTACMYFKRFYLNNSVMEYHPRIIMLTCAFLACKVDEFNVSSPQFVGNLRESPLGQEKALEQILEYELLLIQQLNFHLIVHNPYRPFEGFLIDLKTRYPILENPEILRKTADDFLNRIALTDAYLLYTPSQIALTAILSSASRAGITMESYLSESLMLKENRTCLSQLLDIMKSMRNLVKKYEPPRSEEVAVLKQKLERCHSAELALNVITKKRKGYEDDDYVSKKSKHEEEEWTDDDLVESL

Structure (SMILES)	IC50 (CDK1/cyclin B)	IC50 (CDK2/cyclin E)	IC50 (CDK7/cyclin H)	IC50 (CDK9/cyclin T1)	IC50 (GSK3β)	IC50 (A549)	IC50 (HT29)	IC50 (Saos-2)	IC50 [1]	IC50 (CDK2/cyclin A)	IC50 (CDK4/cyclin D1)
CS(=O)(=O)NCc1cccc(-c2ccnc(Nc3cccc([N+](=O)[O-])c3)n2)c1 [Compound 40, N-{3-[2-(3-Nitro-phenylamino)-pyrimidin-4-yl]-benzyl}-methanesulfonamide]	270 nM	420 nM	880 nM	1600 nM	5 nM	1600 nM	1200 nM	4300 nM	2400 ± 1700 nM		
O=[N+]([O-])c1cccc(Nc2nccc(-c3cccc(CN4CCCC(CCO)C4)c3)n2)c1 (stereo not drawn) [Compound 100, 2-(1-{3-[2-(3-Nitro-phenylamino)-pyrimidin-4-yl]-benzyl}-piperidin-3-yl)-ethanol]	1200 nM	60 nM	70 nM	2 nM	20 nM	560 nM	640 nM	1300 nM	800 ± 400 nM	580 nM	3400 nM
CCNc1cccc(-c2ccnc(Nc3ccc(OC)cc3)n2)c1 [Compound 25, [4-(3-Ethylamino-phenyl)-pyrimidin-2-yl]-(4-methoxy-phenyl)-amine]	170 nM	39 nM	940 nM	5 nM	140 nM					30 nM	170 nM
Oc1cccc(Nc2nccc(-c3cccc(Cn4cncn4)c3)n2)c1 [Compound 34, 3-[4-(3-[1,2,4]triazol-1-ylmethyl-phenyl)-pyrimidin-2-ylamino]-phenol]	7000 nM	240 nM	1200 nM	130 nM	41 nM	4100 nM	8300 nM	3700 nM	5400 ± 2500 nM	2400 nM	1800 nM
O=[N+]([O-])c1cccc(Nc2nccc(-c3cccc(CN4CCOCC4)c3)n2)c1 [Compound 39, [4-(3-Morpholin-4-ylmethyl-phenyl)-pyrimidin-2-yl]-(3-nitro-phenyl)-amine]	350 nM	120 nM	38 nM	110 nM	150 nM	6800 nM	2000 nM	8000 nM	5600 ± 3200 nM	2400 nM	2410 nM
Oc1cccc(Nc2nccc(-c3cccc(CNCc4ccccc4)c3)n2)c1 [Compound 28, 3-{4-[3-(Benzylamino-methyl)-phenyl]-pyrimidin-2-ylamino}-phenol]	2100 nM	860 nM	2600 nM	35 nM	120 nM	8000 nM	16000 nM	7100 nM	10400 ± 4900 nM	1000 nM	2600 nM
CCNc1cccc(-c2ccnc(Nc3ccc([N+](=O)[O-])cc3)n2)c1 [Compound 26, [4-(3-Ethylamino-phenyl)-pyrimidin-2-yl]-(4-nitro-phenyl)-amine]	1300 nM	33 nM	20000 nM	59 nM	40 nM	1700 nM	1200 nM	1100 nM	1300 ± 300 nM	130 nM	
Oc1cccc(Nc2nccc(-c3cccc(Cl)c3)n2)c1 [Compound 18, 3-[4-(3-Chloro-phenyl)-pyrimidin-2-ylamino]-phenol]	5500 nM	1100 nM								3100 nM	
CCN(Cc1cccc(-c2ccnc(Nc3ccc(OC)nc3)n2)c1)C(C)C [Compound 53, (4-{3-[(Ethyl-isopropyl-amino)-methyl]-phenyl}-pyrimidin-2-yl)-(6-methoxy-pyridin-3-yl)-amine]	3900 nM	350 nM	2500 nM	28 nM	51 nM	2200 nM	850 nM	3200 nM	2100 ± 1200 nM	3400 nM	1100 nM
Oc1ccc(Nc2nccc(-c3cccc(Cl)c3)n2)cc1 [Compound 17, 4-[4-(3-Chloro-phenyl)-pyrimidin-2-ylamino]-phenol]	5300 nM	390 nM								2100 nM	
Oc1ccc(Nc2nccc(-c3ccc(Cl)c(Cl)c3)n2)cc1 [Compound 21, 4-[4-(3,4-Dichloro-phenyl)-pyrimidin-2-ylamino]-phenol]	29000 nM	3500 nM		5400 nM		11700 nM	15100 nM	41500 nM	22800 ± 16300 nM		29000 nM
Cc1ccc(Nc2nccc(-c3cccc(CN4CCCCC4CO)c3)n2)cc1[N+](=O)[O-] (stereo not drawn) [Compound 108, (1-{3-[2-(4-Methyl-3-nitro-phenylamino)-pyrimidin-4-yl]-benzyl}-piperidin-2-yl)-methanol]	1100 nM	60 nM	30 nM	< 1 nM	20 nM					440 nM	1700 nM
CN(C)c1ccc(Nc2nccc(-c3ccc(Cl)c(Cl)c3)n2)cc1 [Compound 20, N-[4-(3,4-Dichloro-phenyl)-pyrimidin-2-yl]-N′,N′-dimethyl-benzene-1,4-diamine]	3900 nM	6100 nM			1100 nM	35500 nM	35800 nM	24700 nM	32000 ± 6300 nM		20000 nM
COc1ccc(Nc2nccc(-c3cccc(Cn4ccnc4)c3)n2)cn1 [Compound 59, [4-(3-Imidazol-1-ylmethyl-phenyl)-pyrimidin-2-yl]-(6-methoxy-pyridin-3-yl)-amine]	120 nM	1300 nM	500 nM	40 nM	70 nM					60 nM	3800 nM
COc1ccc(Nc2nccc(-c3cccc(Cn4cncn4)c3)n2)cc1 [Compound 42, (4-Methoxy-phenyl)-[4-(3-[1,2,4]triazol-1-ylmethyl-phenyl)-pyrimidin-2-yl]-amine]	11000 nM	3200 nM	1100 nM	220 nM	87 nM	10600 nM	6700 nM	25800 nM	14400 ± 10100 nM		2000 nM
O=[N+]([O-])c1cccc(Nc2nccc(-c3cccc(CNCc4ccccc4)c3)n2)c1 [Compound 27, {4-[3-(Benzylamino-methyl)-phenyl]-pyrimidin-2-yl}-(3-nitro-phenyl)-amine]		570 nM	6000 nM	2000 nM	180 nM	14100 nM	4900 nM	43800 nM	20900 ± 20300 nM	6500 nM	16000 nM
CN(C)Cc1cccc(-c2ccnc(Nc3cccc([N+](=O)[O-])c3)n2)c1 [Compound 71, [4-(3-Dimethylaminomethyl-phenyl)-pyrimidin-2-yl]-(3-nitro-phenyl)-amine]	10 nM	10 nM	30 nM	3 nM	30 nM					30 nM	200 nM
